Like-named read-outs stand apart in the source and are kept apart here.
Experiments:
[1] = target: HCV NS5B genotype 1b (Con1) (Hepatitis C virus genotype 1b (isolate Con1) (HCV), UniProt Q9WMX2); assay: HCV NS5B RdRp enzyme assay (1b enzyme); type: biochemical; details: genotype 1b NS5B enzyme
Procedure: HCV NS5B RdRp Cloning, Expression, and Purification.
The cDNA encoding NS5B proteins of HCV genotype 1b (Con1), a genotype 1b variant with amino acid 316 mutated from cysteine to asparagine, and genotype 2a (JFH-1), were cloned into the pET21a expression vector. Each untagged protein was expressed with an 18 amino acid C-terminal truncation to enhance the solubility. The E. coli competent cell line BL21(DE3) was used for expression of the protein. Cultures were grown at 37° C. for ˜4 hours until the cultures reached an optical density of 2.0 at 600 nm. The cultures were cooled to 20° C. and induced with 1 mM IPTG. Fresh ampicillin was added to a final concentration of 50 μg/mL and the cells were grown overnight at 20° C.
The lysis buffer consisted of 20 mM Tris-HCl, pH 7.4, 500 mM NaCl, 0.5% triton X-100, 1 mM DTT, 1 mM EDTA, 20% glycerol, 0.5 mg/mL lysozyme, 10 mM MgCl2, 15 ug/mL deoxyribonuclease I, and Complete TM protease inhibitor tablets (Roche). After addition of the lysis buffer, frozen cell pellets were resuspended using a tissue homogenizer. To reduce the viscosity of the sample, aliquots of the lysate were sonicated on ice using a microtip attached to a Branson sonicator. The sonicated lysate was centrifuged at 100,000×g for 30 minutes at 4° C. and filtered through a 0.2 μm filter unit (Corning).
The protein was purified using two sequential chromatography steps: Heparin sepharose CL-6B and polyU sepharose 4B. The chromatography buffers were identical to the lysis buffer but contained no lysozyme, deoxyribonuclease I, MgCl2 or protease inhibitor and the NaCl concentration of the buffer was adjusted according to the requirements for charging the protein onto the column. Each column was eluted with a NaCl gradient which varied in length from 5-50 column volumes depending on the column type. […] The enzyme was aliquoted and stored at −80° C.
HCV NS5B RdRp Enzyme Assay.
An on-bead solid phase homogeneous assay was used in a 384-well format to assess NS5B inhibitors (WangY-K, Rigat K, Roberts S, and Gao M (2006) Anal Biochem, 359: 106-111). The biotinylated oligo dT12 primer was captured on streptavidin-coupled imaging beads (GE, RPNQ0261) by mixing primer and beads in 1× buffer and incubating at room temperature for three hours. Unbound primer was removed after centrifugation. The primer-bound beads were resuspended in 3× reaction mix (20 mM Hepes buffer, pH 7.5, dT primer coupled beads, poly A template, ^3H-UTP, and RNAse inhibitor (Promega N2515)). Compounds were serially diluted 1:3 in DMSO and aliquoted into assay plates. Equal volumes (5 μL) of water, 3× reaction mix, and enzyme in 3× assay buffer (60 mM Hepes buffer, pH 7.5, 7.5 mM MgCl2, 7.5 mM KCl, 3 mM DTT, 0.03 mg/mL BSA, 6% glycerol) were added to the diluted compound on the assay plate. Final concentration of components in 384-well assay: 0.36 nM template, 15 nM primer, 0.29 μM ^3H-UTP (0.3 μCi), 1.6 U/4 RNAse inhibitor, 7 nM NS5B enzyme, 0.01 mg/mL BSA, 1 mM DTT, and 0.33 μg/μL beads, 20 mM Hepes buffer, pH 7.5, 2.5 mM MgCl2, 2.5 mM KCl, and 0.1% DMSO.
Reactions were allowed to proceed for 24 hours at 30° C. and terminated by the addition of 50 mM EDTA (5 μL). After incubating for at least 15 minutes, plates were read on an Amersham LEADseeker multimodality imaging system.
IC50 values for compounds were determined using ten different [I]. IC50 values were calculated from the inhibition using the four-parameter logistic formula y=A+((B−A)/(1+((C/x)^D))), where A and B denote minimal and maximal % inhibition, respectively, C is the IC50, D is hill slope and x represents compound concentration.

[2] = system: genotype 1b (Con-1) HCV replicon in Huh-7 cells; assay: HCV replicon luciferase assay (1b replicon); type: cell-based; details: Hepatitis C virus
Procedure: The cell lines used to evaluate compounds consist of a human hepatocyte derived cell line (Huh-7) that constitutively expresses a genotype 1b (Con-1) HCV replicon or a genotype 1b (Con-1) HCV replicon with an asparagine replacing the cysteine at amino acid 316, or a genotype 2a (JFH-1) replicon, containing a Renilla luciferase reporter gene. These cells were maintained in Dulbecco's modified Eagle medium (DMEM) containing 10% FBS, 100 U/mL penicillin/streptomycin and 1.0 mg/mL G418.
HCV Replicon Luciferase Assay.
After 3 days incubation at 37° C., cells were analyzed for Renilla Luciferase activity using the EnduRen substrate (Promega cat #E6485) according to the manufacturer's directions. Briefly, the EnduRen substrate was diluted in DMEM and then added to the plates to a final concentration of 7.5 μM. The plates were incubated for at least 1 h at 37° C. then read on a Viewlux Imager (PerkinElmer) using a luminescence program.

[3] = 72 h, genotype 1b replicon, Huh-7, Renilla luciferase, 3 days incubation, read-out: EC50

Chain of HCV NS5B genotype 1b (Con1) (Q9WMX2 2420-2992): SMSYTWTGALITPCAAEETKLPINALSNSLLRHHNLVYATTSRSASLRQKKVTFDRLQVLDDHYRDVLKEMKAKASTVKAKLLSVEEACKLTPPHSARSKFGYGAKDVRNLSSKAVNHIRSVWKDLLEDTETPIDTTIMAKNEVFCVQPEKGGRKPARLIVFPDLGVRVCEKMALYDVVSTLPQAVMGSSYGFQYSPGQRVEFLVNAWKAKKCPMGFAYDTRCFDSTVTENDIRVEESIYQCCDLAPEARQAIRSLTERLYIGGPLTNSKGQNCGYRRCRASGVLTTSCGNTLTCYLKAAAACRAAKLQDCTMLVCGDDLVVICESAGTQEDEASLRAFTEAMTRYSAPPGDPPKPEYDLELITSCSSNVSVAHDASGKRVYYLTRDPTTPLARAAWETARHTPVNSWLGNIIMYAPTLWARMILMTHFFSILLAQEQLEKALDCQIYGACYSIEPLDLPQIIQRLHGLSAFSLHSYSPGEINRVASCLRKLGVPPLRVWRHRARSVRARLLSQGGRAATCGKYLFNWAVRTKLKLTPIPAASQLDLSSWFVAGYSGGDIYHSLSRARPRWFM

| SMILES | IC50 [1] [nM] | EC50 [2, 3] [nM] | EC50 ([2]; Huh-7, 72 h) [nM] |
| --- | --- | --- | --- |
| CNC(=O)c1c(-c2ccc(F)cc2)oc2cc(OCC(F)(F)F)c(-c3cccc(C(=O)NC4(c5ncccn5)CC4)c3)cc12 [Example 1, 2-(4-Fluorophenyl)-N-methyl-5-(3-((1-(pyrimidin-2-yl)cyclopropyl)carbamoyl)phenyl)-6-(2,2,2-trifluoroethoxy)benzofuran-3-carboxamide] | 7.42 | 10 |  |
| CNC(=O)c1c(-c2ccc(F)cc2)oc2cc(OCC(F)(F)F)c(-c3ccc(OC)c(C(=O)NC4(c5ncccn5)CC4)c3)cc12 [Example 2, 2-(4-Fluorophenyl)-5-(4-methoxy-3-((1-(pyrimidin-2-yl)cyclopropyl)carbamoyl)phenyl)-N-methyl-6-(2,2,2-trifluoroethoxy)benzofuran-3-carboxamide] | 4.15 | 6.24 |  |
| CNC(=O)c1c(-c2ccc(F)cc2)oc2cc(OCC(F)(F)F)c(-c3ccc(F)c(C(=O)NC4(c5ncccn5)CC4)c3)cc12 [Example 3, 5-(4-Fluoro-3-((1-(pyrimidin-2-yl)cyclopropyl)carbamoyl)phenyl)-2-(4-fluorophenyl)-N-methyl-6-(2,2,2-trifluoroethoxy)benzofuran-3-carboxamide] | 4.38 | 6.7 |  |
| CNC(=O)c1c(-c2ccc(F)cc2)oc2cc(OCC(F)(F)F)c(-c3ccc(F)c(C(=O)NC45CC(C4)C5)c3)cc12 [Example 4, 5-(3-(Bicyclo[1.1.1]pentan-1-ylcarbamoyl)-4-fluorophenyl)-2-(4-fluorophenyl)-N-methyl-6-(2,2,2-trifluoroethoxy)benzofuran-3-carboxamide] | 3.88 | 8.61 |  |
| CCOc1cc2oc(-c3ccc(F)cc3)c(C(=O)NC)c2cc1-c1cccc(C(=O)NC23CC(C2)C3)c1 [Example 5, 5-(3-(Bicyclo[1.1.1]pentan-1-ylcarbamoyl)phenyl)-6-ethoxy-2-(4-fluorophenyl)-N-methylbenzofuran-3-carboxamide] | 4.3 | 6.5 |  |
| CCOc1cc2oc(-c3ccc(F)cc3)c(C(=O)NC)c2cc1-c1cccc(C(=O)NC2(c3ncccn3)CC2)c1 [Example 7, 6-Ethoxy-2-(4-fluorophenyl)-N-methyl-5-(3-((1-(pyrimidin-2-yl)cyclopropyl)carbamoyl)phenyl)benzofuran-3-carboxamide] | 5.78 | 10 |  |
| CNC(=O)c1c(-c2ccc(F)cc2)oc2cc(OCC(F)(F)F)c(-c3cccc(C(=O)NC4(C#N)CC4)c3)cc12 [Example 8, 5-(3-((1-Cyanocyclopropyl)carbamoyl)phenyl)-2-(4-fluorophenyl)-N-methyl-6-(2,2,2-trifluoroethoxy)benzofuran-3-carboxamide] | 4.97 | 20 |  |
| CNC(=O)c1c(-c2ccc(F)cc2)oc2cc(OCC(F)(F)F)c(-c3cccc(C(=O)NC(C)(C)C#N)c3)cc12 [Example 10, 5-(3-((2-Cyanopropan-2-yl)carbamoyl)phenyl)-2-(4-fluorophenyl)-N-methyl-6-(2,2,2-trifluoroethoxy)benzofuran-3-carboxamide] | 3.02 | 5.01 |  |
| CCOc1cc2oc(-c3ccc(F)cc3)c(C(=O)NC)c2cc1-c1ccc(OC)c(C(=O)NC2(c3ncccn3)CC2)c1 [Example 12, 6-Ethoxy-2-(4-fluorophenyl)-5-(4-methoxy-3-((1-(pyrimidin-2-yl)cyclopropyl)carbamoyl)phenyl)-N-methylbenzofuran-3-carboxamide] | 1.89 | 4.2 |  |
| CCOc1cc2oc(-c3ccc(F)cc3)c(C(=O)NC)c2cc1-c1cnc(OC)c(C(=O)NC2(c3ncccn3)CC2)c1 [Example 13, 5-(6-Ethoxy-2-(4-fluorophenyl)-3-(methylcarbamoyl)benzofuran-5-yl)-2-methoxy-N-(1-(pyrimidin-2-yl)cyclopropyl)nicotinamide] | 2.72 | 3.67 |  |
| CCOc1cc2oc(-c3ccc(F)cc3)c(C(=O)NC)c2cc1-c1cnc(OC)c(C(=O)NC23CC(C2)C3)c1 [Example 15, N-(bicyclo[1.1.1]pentan-1-yl)-5-(6-ethoxy-2-(4-fluorophenyl)-3-(methylcarbamoyl)benzofuran-5-yl)-2-methoxynicotinamide] | 2.48 | 7.03 |  |
| [2H]C([2H])([2H])Oc1ncc(-c2cc3c(C(=O)NC)c(-c4ccc(F)cc4)oc3cc2OCC)cc1C(=O)NC(C)(C)C#N [Example 17, N-(2-cyanopropan-2-yl)-5-(6-ethoxy-2-(4-fluorophenyl)-3-(methylcarbamoyl)benzofuran-5-yl)-2-(methoxy-d3)nicotinamide] | 1.84 |  | 2.8 |
| CNC(=O)c1c(-c2ccc(F)cc2)oc2cc(OCC(F)(F)F)c(-c3ccc(OC)c(C(=O)NC(C)(C)c4ncon4)c3)cc12 [Example 18, 5-(3-((2-(1,2,4-oxadiazol-3-yl)propan-2-yl)carbamoyl)-4-methoxyphenyl)-2-(4-fluorophenyl)-N-methyl-6-(2,2,2-trifluoroethoxy)benzofuran-3-carboxamide] | 2.83 | 2.85 |  |
| CNC(=O)c1c(-c2ccc(F)cc2)oc2cc(OCC(F)F)c(-c3cccc(C(=O)NC(C)(C)c4ncon4)c3)cc12 [Example 19, 5-(3-((2-(1,2,4-Oxadiazol-3-yl)propan-2-yl)carbamoyl)phenyl)-6-(2,2-difluoroethoxy)-2-(4-fluorophenyl)-N-m ethylbenzofuran-3-carboxamide] | 4.2 | 7.41 |  |
| CNC(=O)c1c(-c2ccc(F)cc2)oc2cc(OCC(F)F)c(-c3cccc(C(=O)NC4(c5ncccn5)CC4)c3)cc12 [Example 20, 6-(2,2-difluoroethoxy)-2-(4-fluorophenyl)-N-methyl-5-(3-((1-(pyrimidin-2-yl)cyclopropyl)carbamoyl)phenyl)benzofuran-3-carboxamide] | 4.54 |  | 6.79 |
| CNC(=O)c1c(-c2ccc(F)cc2)oc2cc(OCC(F)(F)F)c(-c3cccc(C(=O)NC(C)(C)c4ncon4)c3)cc12 [Example 21, 5-(3-((2-(1,2,4-oxadiazol-3-yl)propan-2-yl)carbamoyl)phenyl)-2-(4-fluorophenyl)-N-methyl-6-(2,2,2-trifluoroethoxy)benzofuran-3-carboxamide] | 4.49 | 10 |  |
| CNC(=O)c1c(-c2ccc(F)cc2)oc2cc(OC(C)C)c(-c3ccc(OC)c(C(=O)NC(C)(C)c4ncon4)c3)cc12 [Example 23, 5-(3-((2-(1,2,4-Oxadiazol-3-yl)propan-2-yl)carbamoyl)-4-methoxyphenyl)-2-(4-fluorophenyl)-6-isopropoxy-N-methylbenzofuran-3-carboxamide] | 7.14 | 10 |  |
